Data: US20160102058A1, “FLUORO-PERHEXILINE COMPOUNDS AND THEIR THERAPEUTIC USE” (THE UNIVERSITY COURT OF THE UNIVERSITY OF ABERDEEN, priority 2013, published 2016)

Experiments:
[1] = Human liver microsomal (HLM) stability assay; format: in vitro ADME; details: for microsomal CLint at 3 μM / half-life at 3 μM: both sexes, pH 7.4, human liver microsomes, 3 μM test compound; for microsomal CLint at 3 μM: read-out: CLint (μL/min/mg protein) HLM; for half-life at 3 μM: read-out: T½ (min) HLM; for metabolic stability compared with perhexiline (in words): human and rat liver microsomes, versus perhexiline
Experimental: The metabolic stability of fluoroperhexiline derivatives was measured by determination of the rate of compound disappearance when incubated in the presence of both human and rat liver microsomes. Liver microsomes are prepared from the endoplasmic reticulum of hepatocytes and are the primary source of the most important enzymes (cytochrome P450) involved in drug metabolism. Study of drug stability in the presence of liver microsomes is accepted as a valuable model permitting rapid prediction of in vivo drug stability.
Human and rat liver microsomes were obtained from a commercial source. Test compounds (3 μM) were incubated with pooled liver microsomes (male and female). Samples were incubated for a 45 minute period and removed at 5 time points and test compounds were analysed by LC-MS/MS.
Microsomes (final protein concentration 0.5 mg/mL), 0.1 M phosphate buffer pH 7.4, and test compound (final concentration 3 μM; diluted from 10 mM stock solution to give a final DMSO concentration of 0.25%) were incubated at 37° C. prior to the addition of NADPH (final concentration 1 mM) to initiate the reaction. The final incubation volume was 25 μL. A control incubation was included for each compound tested, where 0.1 M phosphate buffer pH 7.4 was added instead of NADPH. The control compounds testosterone and 7-hydroxycoumarin were included in each experiment and all incubations were performed singularly for each compound.
Each compound was incubated for 0, 5, 15, 30, and 45 minutes. The control (minus NADPH) was incubated for 45 minutes only. The reactions were stopped by the addition of 50 μL methanol containing internal standard at the appropriate time points. The incubation plates were centrifuged at 2500 rpm for 20 minutes at 4° C. to precipitate the protein.
Following protein precipitation, the sample supernatants were combined in cassettes of up to 4 compounds and analysed using standard LC-MS/MS conditions.
From a plot of the natural logarithm of the peak area ratio (i.e., the ratio of compound peak area:internal standard peak area) against time, the gradient of the line was determined. Subsequently, half-life and intrinsic clearance were calculated using the equations below:
Eliminated Rate Constant (k)=(−Gradient).
Half-Life (t1/2) (min)=0.063/k.
Intrinsic Clearance (CLint) […]=(V×0.693)/t1/2. • wherein V=Incubation Volume (μL/mg microsomal protein).

cardiac CPT-1 = target: T1, cardiac CPT-1 (Rattus norvegicus, UniProt Q63704); assay: Carnitine palmitoyl transferase (M-CPT-1) inhibition assay, rat heart mitochondria; format: biochemical
T1 construct: 50 μL of mitochondrial suspension, suitably diluted in Assay Buffer; from tissue; host or cells: rat heart mitochondria (Sprague-Dawley)
T1 sequence (Q63704 1-772): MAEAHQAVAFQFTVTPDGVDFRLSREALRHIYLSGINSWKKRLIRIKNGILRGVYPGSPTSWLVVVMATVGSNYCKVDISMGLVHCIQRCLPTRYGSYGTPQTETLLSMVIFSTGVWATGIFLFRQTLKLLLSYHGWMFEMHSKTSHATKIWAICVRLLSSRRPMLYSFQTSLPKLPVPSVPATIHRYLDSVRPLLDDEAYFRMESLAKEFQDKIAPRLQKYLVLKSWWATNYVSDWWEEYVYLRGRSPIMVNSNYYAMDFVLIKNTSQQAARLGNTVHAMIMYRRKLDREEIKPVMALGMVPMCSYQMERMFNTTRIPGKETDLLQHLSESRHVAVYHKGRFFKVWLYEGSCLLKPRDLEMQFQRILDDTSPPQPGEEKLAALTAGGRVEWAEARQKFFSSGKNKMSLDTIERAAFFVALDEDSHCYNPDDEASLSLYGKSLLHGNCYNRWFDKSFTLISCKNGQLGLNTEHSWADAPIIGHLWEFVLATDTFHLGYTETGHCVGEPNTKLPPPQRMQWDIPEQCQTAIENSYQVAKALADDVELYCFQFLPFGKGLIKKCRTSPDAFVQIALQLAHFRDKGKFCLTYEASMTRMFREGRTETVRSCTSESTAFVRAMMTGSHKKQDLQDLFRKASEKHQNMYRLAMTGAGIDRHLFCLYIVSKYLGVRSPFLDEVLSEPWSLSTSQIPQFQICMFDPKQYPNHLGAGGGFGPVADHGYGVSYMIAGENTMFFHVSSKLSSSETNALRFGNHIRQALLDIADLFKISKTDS
Experimental: Male Sprague-Dawley rats (8-10 weeks of age) were purchased from Charles River and maintained for 10 days under standard housing and feeding conditions. All isolation procedures were performed on ice using pre-cooled solutions and instruments. Rats (n=4 per mitochondrial isolation batch) were sacrificed by CO2 asphyxiation, and hearts were removed and rinsed in 3 changes of ice-cold phosphate buffered saline (PBS) to remove blood. Hearts were finely minced with scissors, and homogenised in 5 volumes/wt of a buffer containing 300 mM sucrose, 5 mM MOPS, 1 mM EGTA, 5 mM K2HPO4, 0.1% BSA, pH 7.4, using a teflon Potter homogenizer. The homogenate was centrifuged at 1500×g for 10 min, the supernatant was collected and centrifuged at 9800×g for 5 min, the mitochondrial pellet was washed and centrifuged twice in the same buffer, and then re-suspended in Assay Buffer (150 mM sucrose, 60 mM KCl, 25 mM Tris/HCl, 1 mM EDTA, 0.1 mM 4,4′-dithiopyridine, 1.3 mg/mL lipid-depleted BSA, pH 6.8). Mitochondrial suspensions were kept on ice and used fresh for each set of experiments. A spectrophotometric assay for M-CPT-1 was used, which measured the decrease in palmitoyl CoA concentration as it was utilised by the enzyme to produce palmitoylcarnitine, according to the following reaction: palmitoyl CoA+L-carnitine→palmitoylcarnitine+CoA The disappearance of palmitoyl CoA was monitored as a loss of UV absorbance at 324 nm. Enzyme reactions (1.0 mL final volume, in a spectrophotometer cuvette) contained: • 890 μL of Assay Buffer (see above). • 50 μL of mitochondrial suspension, suitably diluted in Assay Buffer. • 20 μL of 50-fold concentrated inhibitor in suitable vehicle, or vehicle alone. • 20 μL of 2 mM palmitoyl CoA (final concentration 40 μM). • 20 μL of 20 mM L-carnitine (final concentration 400 μM). […] Tubes were incubated at 37° C., and UV absorbance was recorded for 5 min. […] The protein concentration of the mitochondrial suspension was determined using the Bradford assay reagent. […]

| SMILES | microsomal CLint at 3 μM [1] [µL/min/mg] | half-life at 3 μM [1] [min] | IC50 (cardiac CPT-1) [µM] | metabolic stability compared with perhexiline (in words) [1] |
| --- | --- | --- | --- | --- |
| C1CCC(C(CC2CCCCN2)C2CCCCC2)CC1 (centres unmarked) [Perhexiline, 2-(2,2-dicyclohexylethyl)piperidine] | 13.8 | 100 | 18 | – |
| FC1CCC(C(CC2CCCCN2)C2CCCCC2)CC1 (mixture of isomers) [FPER-003, 2-(2-Cyclohexyl-2-(4-fluorocyclohexyl)ethyl)piperidine] | 21.3 | 65 | 85 | substantial decrease in stability |
| FC1(F)CCC(C(CC2CCCCN2)C2CCCCC2)CC1 (mixture of isomers) [FPER-001, 2-(2-Cyclohexyl-2-(4,4-difluorocyclohexyl)ethyl)piperidine] | 2.6 | 525 | 35 | substantial increase in metabolic stability |
